Patent publication US20220088016A1, “CANCER TREATMENT USING MULTI-TARGETED KINASE INHIBITOR IN COMBINATION OF PROTEIN KINASE BIOMARKERS” (ZHEJIANG CROWNMAB BIOTECH CO. LTD., priority 2019, published 2022)

Legend:
Test in all cases: Kinase IC50 (Eurofins KinaseProfiler)
Assay type in all cases: biochemical
[1] = biological target: T1, Fms (h) (CSF1R) (Homo sapiens, UniProt P07333)
T1 construct: purchased Eurofins (KinaseProfiler service)
Description: (§1) CBT-102 were tested against each of the selected kinases using the Eurofins standard KinaseProfder assays and following the relevant standard operating procedures. The required volume of the 50× stock of test compound (CBT-102) was added to the assay well, before a reaction mix containing the enzyme and substrate was added. The reaction was initiated by the addition of ATP at the selected concentration. There was no pre-incubation of the compound with the enzyme/substrate mix prior to ATP addition.
(§2) Data are handled using a custom-built in-house analysis software. Results are expressed as kinase activity remaining, as a percentage of the DMSO control. This is calculated using the following formula: […]
(§3) For IC50 determinations, data are analyzed using XLFit version 5.3 (ID Business Solutions).

[2] = biological target: T2, IKKβ (h) (Homo sapiens, UniProt O14920)
T2 construct: purchased Eurofins (KinaseProfiler service)
T2 sequence (O14920 whole entry): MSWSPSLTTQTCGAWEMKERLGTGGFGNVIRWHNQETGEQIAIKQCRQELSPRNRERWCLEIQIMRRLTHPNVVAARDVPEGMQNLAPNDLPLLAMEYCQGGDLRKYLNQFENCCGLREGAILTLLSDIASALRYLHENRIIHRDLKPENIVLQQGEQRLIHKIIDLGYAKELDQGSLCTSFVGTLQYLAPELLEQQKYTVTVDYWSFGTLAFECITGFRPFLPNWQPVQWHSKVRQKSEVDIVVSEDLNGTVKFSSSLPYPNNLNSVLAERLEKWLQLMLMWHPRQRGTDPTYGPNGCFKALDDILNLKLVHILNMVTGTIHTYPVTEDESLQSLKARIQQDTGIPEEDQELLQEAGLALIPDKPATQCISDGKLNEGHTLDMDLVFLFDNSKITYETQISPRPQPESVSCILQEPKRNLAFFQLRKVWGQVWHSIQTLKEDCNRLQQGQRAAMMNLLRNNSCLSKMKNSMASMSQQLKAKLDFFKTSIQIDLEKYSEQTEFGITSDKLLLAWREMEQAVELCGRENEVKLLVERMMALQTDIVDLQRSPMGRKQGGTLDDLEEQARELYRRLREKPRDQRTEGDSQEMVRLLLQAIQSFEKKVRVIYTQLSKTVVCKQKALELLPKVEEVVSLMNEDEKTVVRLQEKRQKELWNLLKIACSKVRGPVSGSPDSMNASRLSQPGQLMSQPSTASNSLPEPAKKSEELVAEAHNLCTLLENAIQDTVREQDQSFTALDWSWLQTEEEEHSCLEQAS
Description: as §1, §2, §3

[3] = biological target: T3, IR (h) (Homo sapiens, UniProt P06213)
T3 construct: purchased Eurofins (KinaseProfiler service)
Description: as §1, §2, §3

[4] = biological target: T4, EGFR (h) (Homo sapiens, UniProt P00533)
T4 construct: purchased Eurofins (KinaseProfiler service)
Description: as §1, §2, §3

[5] = biological target: T5, SAPK2a (h) (Homo sapiens, UniProt Q16539)
T5 construct: purchased Eurofins
Description: as §1, §2, §3

[6] = biological target: T6, CDKL3 (h) (Homo sapiens, UniProt Q8IVW4)
T6 construct: purchased Eurofins (KinaseProfiler service)
Description: as §1, §2, §3

[7] = biological target: T7, FGFR4 (h) (Homo sapiens, UniProt P22455)
T7 construct: purchased Eurofins (KinaseProfiler service)
Description: as §1, §2, §3

[8] = biological target: T8, TNIK (h) (Homo sapiens, UniProt Q9UKE5)
T8 construct: purchased Eurofins
T8 sequence (Q9UKE5 whole entry): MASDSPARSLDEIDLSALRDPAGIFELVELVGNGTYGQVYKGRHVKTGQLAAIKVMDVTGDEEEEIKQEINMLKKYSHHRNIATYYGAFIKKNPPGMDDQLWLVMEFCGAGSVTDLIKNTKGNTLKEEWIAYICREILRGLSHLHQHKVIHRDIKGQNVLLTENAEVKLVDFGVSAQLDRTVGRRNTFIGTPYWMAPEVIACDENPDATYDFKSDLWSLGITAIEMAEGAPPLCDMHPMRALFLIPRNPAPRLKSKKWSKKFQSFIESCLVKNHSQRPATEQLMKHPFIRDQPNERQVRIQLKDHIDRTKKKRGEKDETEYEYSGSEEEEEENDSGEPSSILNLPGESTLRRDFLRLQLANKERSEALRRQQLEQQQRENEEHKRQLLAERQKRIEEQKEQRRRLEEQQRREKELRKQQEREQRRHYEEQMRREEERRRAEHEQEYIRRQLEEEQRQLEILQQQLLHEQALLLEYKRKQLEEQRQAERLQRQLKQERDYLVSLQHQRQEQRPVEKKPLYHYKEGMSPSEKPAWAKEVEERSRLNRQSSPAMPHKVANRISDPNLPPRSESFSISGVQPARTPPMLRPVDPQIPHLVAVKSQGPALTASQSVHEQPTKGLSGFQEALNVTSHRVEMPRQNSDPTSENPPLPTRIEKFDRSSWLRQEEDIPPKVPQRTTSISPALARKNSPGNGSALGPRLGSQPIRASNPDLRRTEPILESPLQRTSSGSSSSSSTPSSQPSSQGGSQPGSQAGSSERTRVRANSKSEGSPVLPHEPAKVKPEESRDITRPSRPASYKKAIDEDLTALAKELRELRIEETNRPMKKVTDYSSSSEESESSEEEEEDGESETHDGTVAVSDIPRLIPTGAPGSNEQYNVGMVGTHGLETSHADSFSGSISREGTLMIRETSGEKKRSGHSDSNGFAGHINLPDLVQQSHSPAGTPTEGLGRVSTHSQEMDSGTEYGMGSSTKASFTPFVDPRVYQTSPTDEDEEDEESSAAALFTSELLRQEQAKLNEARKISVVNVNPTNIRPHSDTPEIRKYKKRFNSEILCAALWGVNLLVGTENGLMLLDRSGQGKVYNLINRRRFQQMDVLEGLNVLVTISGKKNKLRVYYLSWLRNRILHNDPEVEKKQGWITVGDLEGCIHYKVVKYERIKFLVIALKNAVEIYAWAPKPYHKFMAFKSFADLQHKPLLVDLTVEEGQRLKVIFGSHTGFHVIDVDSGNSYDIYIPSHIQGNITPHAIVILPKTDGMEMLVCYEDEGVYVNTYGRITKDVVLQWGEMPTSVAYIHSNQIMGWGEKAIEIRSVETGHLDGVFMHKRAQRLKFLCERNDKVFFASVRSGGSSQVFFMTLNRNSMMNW
Description: as §1, §2, §3

[9] = biological target: T9, cKit (V560G) (h) (Homo sapiens, UniProt P10721, V560G)
T9 construct: purchased Eurofins (KinaseProfiler service)
Description: as §1, §2, §3

[10] = biological target: T10, LOK (h) (Homo sapiens, UniProt O94804)
T10 construct: purchased Eurofins (KinaseProfiler service)
Description: as §1, §2, §3

[11] = biological target: T11, EphA1 (h) (Homo sapiens, UniProt P21709)
T11 construct: purchased Eurofins (KinaseProfiler service)
Description: as §1, §2, §3

[12] = biological target: T12, Tie2 (h) (Homo sapiens, UniProt Q02763)
T12 construct: purchased Eurofins
Description: as §1, §2, §3

[13] = biological target: T13, DDR1 (h) (Homo sapiens, UniProt Q08345)
T13 construct: purchased Eurofins (KinaseProfiler service)
T13 sequence (Q08345 19-913): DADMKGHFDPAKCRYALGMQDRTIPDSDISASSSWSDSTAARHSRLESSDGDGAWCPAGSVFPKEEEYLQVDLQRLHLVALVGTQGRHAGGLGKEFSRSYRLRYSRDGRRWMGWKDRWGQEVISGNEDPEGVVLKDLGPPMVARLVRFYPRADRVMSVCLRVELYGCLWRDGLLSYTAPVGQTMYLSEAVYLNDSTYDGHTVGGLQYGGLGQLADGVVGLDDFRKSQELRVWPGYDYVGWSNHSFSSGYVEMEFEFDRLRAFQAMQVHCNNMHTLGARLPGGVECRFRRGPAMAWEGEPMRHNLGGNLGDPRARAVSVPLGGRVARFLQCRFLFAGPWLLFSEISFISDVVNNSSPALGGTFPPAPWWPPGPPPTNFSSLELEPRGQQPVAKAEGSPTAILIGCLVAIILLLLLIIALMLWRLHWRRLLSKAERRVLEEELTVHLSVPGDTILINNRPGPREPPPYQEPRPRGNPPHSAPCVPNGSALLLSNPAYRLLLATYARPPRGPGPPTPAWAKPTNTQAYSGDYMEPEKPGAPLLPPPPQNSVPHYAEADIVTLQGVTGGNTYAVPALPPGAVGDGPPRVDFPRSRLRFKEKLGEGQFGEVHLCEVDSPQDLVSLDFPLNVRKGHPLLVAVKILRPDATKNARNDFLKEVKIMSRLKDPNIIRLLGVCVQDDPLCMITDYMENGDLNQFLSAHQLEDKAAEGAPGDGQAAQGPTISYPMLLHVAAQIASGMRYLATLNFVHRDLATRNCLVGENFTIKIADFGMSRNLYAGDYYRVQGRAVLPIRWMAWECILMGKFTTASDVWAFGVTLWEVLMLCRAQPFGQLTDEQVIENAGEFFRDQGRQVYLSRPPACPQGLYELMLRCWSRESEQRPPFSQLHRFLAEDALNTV
Description: as §1, §2, §3

[14] = biological target: T14, SLK (h) (Homo sapiens, UniProt Q9H2G2)
T14 construct: purchased Eurofins
Description: as §1, §2, §3

[15] = biological target: T15, Abl (h) (Homo sapiens, UniProt P00519)
T15 construct: purchased Eurofins
Description: as §1, §2, §3

[16] = biological target: T16, Pim-1 (h) (Homo sapiens, UniProt P11309)
T16 construct: purchased Eurofins
T16 sequence (P11309 whole entry): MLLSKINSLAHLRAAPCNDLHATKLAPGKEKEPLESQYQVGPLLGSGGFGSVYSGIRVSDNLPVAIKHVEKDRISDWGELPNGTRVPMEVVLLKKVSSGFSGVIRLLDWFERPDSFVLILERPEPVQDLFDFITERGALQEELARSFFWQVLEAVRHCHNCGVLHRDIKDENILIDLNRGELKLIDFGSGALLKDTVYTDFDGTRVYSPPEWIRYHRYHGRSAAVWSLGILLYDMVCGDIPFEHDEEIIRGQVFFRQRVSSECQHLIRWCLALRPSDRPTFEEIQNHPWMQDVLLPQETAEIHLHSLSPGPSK
Description: as §1, §2, §3

[17] = biological target: T17, cSRC (h) (Homo sapiens, UniProt P12931)
T17 construct: purchased Eurofins (KinaseProfiler service)
Description: as §1, §2, §3

[18] = biological target: T18, MAP4K5 (h) (Homo sapiens, UniProt Q9Y4K4)
T18 construct: purchased Eurofins (KinaseProfiler service)
Description: as §1, §2, §3

[19] = biological target: T19, p70S6K (h) (Homo sapiens, UniProt P23443)
T19 construct: purchased Eurofins (KinaseProfiler service)
Description: as §1, §2, §3

[20] = biological target: T20, CHK1 (h) (Homo sapiens, UniProt O14757)
T20 construct: purchased Eurofins (KinaseProfiler service)
Description: as §1, §2, §3

[21] = biological target: T21, PKBα (h) (Homo sapiens, UniProt P31749)
T21 construct: purchased Eurofins
Description: as §1, §2, §3

[22] = biological target: T22, c-RAF (h) (Homo sapiens, UniProt P04049)
T22 construct: purchased Eurofins (KinaseProfiler service)
Description: as §1, §2, §3

[23] = biological target: T23, SAPK4 (h) (Homo sapiens, UniProt O15264)
T23 construct: purchased Eurofins
Description: as §1, §2, §3

[24] = biological target: T24, ErbB2 (h) (Homo sapiens, UniProt P04626)
T24 construct: purchased Eurofins (KinaseProfiler service)
Description: as §1, §2, §3

[25] = biological target: T25, IGF-1R (h) (Homo sapiens, UniProt P08069)
T25 construct: purchased Eurofins (KinaseProfiler service)
Description: as §1, §2, §3

[26] = biological target: T26, Plk1 (h) (Homo sapiens, UniProt P53350)
T26 construct: purchased Eurofins
Description: as §1, §2, §3

[27] = biological target: T27, CSK (h) (Homo sapiens, UniProt P41240)
T27 construct: purchased Eurofins (KinaseProfiler service)
Description: as §1, §2, §3

[28] = biological target: T28, FAK (h) (Homo sapiens, UniProt Q05397)
T28 construct: purchased Eurofins (KinaseProfiler service)
T28 sequence (Q05397 whole entry): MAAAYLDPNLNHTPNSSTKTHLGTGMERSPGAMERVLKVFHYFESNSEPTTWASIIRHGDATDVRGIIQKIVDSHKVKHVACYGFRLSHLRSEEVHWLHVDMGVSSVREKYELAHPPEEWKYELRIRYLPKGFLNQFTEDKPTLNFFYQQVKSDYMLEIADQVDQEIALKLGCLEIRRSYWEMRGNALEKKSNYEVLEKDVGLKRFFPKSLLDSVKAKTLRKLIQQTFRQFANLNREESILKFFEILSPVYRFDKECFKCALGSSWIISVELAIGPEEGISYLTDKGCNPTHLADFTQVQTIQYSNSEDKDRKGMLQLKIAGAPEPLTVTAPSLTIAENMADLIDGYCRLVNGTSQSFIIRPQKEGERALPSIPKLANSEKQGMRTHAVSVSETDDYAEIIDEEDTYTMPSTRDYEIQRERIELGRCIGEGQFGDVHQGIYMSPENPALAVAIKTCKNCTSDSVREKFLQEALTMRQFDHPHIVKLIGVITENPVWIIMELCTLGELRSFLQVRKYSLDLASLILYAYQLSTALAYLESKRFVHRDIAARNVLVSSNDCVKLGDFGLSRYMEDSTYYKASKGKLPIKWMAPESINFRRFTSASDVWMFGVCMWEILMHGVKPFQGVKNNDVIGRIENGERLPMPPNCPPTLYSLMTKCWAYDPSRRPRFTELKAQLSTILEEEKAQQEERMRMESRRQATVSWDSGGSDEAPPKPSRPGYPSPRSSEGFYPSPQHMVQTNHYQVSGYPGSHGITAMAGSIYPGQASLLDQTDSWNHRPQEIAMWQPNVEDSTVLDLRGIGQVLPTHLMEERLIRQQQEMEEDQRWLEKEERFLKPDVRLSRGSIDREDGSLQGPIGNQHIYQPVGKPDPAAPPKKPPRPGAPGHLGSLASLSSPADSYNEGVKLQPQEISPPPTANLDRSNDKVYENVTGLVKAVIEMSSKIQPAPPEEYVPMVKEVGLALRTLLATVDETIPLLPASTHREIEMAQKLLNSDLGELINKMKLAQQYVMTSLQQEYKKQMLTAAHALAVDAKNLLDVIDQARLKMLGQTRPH
Description: as §1, §2, §3

[29] = biological target: T29, EphB4 (h) (Homo sapiens, UniProt P54760)
T29 construct: purchased Eurofins (KinaseProfiler service)
Description: as §1, §2, §3

[30] = biological target: T30, SAPK3 (h) (Homo sapiens, UniProt P53778)
T30 construct: purchased Eurofins
T30 sequence (P53778 whole entry): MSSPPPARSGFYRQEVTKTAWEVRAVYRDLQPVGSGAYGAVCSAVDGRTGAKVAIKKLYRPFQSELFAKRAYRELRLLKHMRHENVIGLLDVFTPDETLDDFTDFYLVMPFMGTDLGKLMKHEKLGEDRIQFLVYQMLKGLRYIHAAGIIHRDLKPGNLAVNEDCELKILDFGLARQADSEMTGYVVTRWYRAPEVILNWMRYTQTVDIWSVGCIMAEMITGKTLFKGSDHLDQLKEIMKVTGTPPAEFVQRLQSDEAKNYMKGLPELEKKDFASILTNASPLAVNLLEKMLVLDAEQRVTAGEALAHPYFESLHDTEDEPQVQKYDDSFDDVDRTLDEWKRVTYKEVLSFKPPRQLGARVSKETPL
Description: as §1, §2, §3

[31] = biological target: T31, NEK2 (h) (Homo sapiens, UniProt P51955)
T31 construct: purchased Eurofins (KinaseProfiler service)
Description: as §1, §2, §3

[32] = biological target: T32, PDGFRα (V561D) (h) (Homo sapiens, UniProt P16234, V561D)
T32 construct: purchased Eurofins (KinaseProfiler service)
Description: as §1, §2, §3

[33] = biological target: T33, BRK (h) (Homo sapiens, UniProt Q13882)
T33 construct: purchased Eurofins
Description: as §1, §2, §3

[34] = biological target: T34, DDR2 (h) (Homo sapiens, UniProt Q16832)
T34 construct: purchased Eurofins (KinaseProfiler service)
Description: as §1, §2, §3

[35] = biological target: T35, Aurora-C (h) (Homo sapiens, UniProt Q9UQB9)
T35 construct: purchased Eurofins
T35 sequence (Q9UQB9 whole entry): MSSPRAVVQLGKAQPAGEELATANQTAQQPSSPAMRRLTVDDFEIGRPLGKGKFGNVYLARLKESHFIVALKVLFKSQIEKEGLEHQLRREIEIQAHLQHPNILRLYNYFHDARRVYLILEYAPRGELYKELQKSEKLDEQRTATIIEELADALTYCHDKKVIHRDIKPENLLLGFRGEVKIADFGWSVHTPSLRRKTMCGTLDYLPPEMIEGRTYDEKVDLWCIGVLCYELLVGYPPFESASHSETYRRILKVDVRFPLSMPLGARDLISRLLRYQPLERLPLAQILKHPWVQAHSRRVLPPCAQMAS
Description: as §1, §2, §3

For Cc1cc(Oc2cc(NC(=O)C3CC3)ncn2)ccc1NC(=O)Nc1ccc(Cl)c(C(F)(F)F)c1 [CBT-102], which IC50 [1] is on record?
Its IC50 is 43 nM.

What about the IC50 [2] of the same compound?
Its IC50 is greater than 10000 nM.

And the IC50 [3]?
The IC50 was greater than 10000 nM.

And the IC50 [4]?
Its IC50 is greater than 10000 nM.

What about the IC50 [5] of the same compound?
Its IC50 is 180 nM.

What about the IC50 [6] of the same compound?
The IC50 was greater than 10000 nM.

And the IC50 [7]?
Its IC50 is greater than 10000 nM.

And the IC50 [8]?
The IC50 was 113 nM.

And the IC50 [9]?
The IC50 was 38 nM.

And the IC50 [10]?
Its IC50 is 1090 nM.

What about the IC50 [11] of the same compound?
Its IC50 is 1110 nM.

What about the IC50 [12] of the same compound?
Its IC50 is 242 nM.

What about the IC50 [13] of the same compound?
Its IC50 is 34 nM.

And the IC50 [14]?
The IC50 was 879 nM.

What about the IC50 [15] of the same compound?
The IC50 was 1830 nM.

What about the IC50 [16] of the same compound?
The IC50 was greater than 10000 nM.

And the IC50 [17]?
Its IC50 is 2500 nM.

What about the IC50 [18] of the same compound?
The IC50 was 24 nM.

And the IC50 [19]?
The IC50 was greater than 10000 nM.

And the IC50 [20]?
The IC50 was greater than 10000 nM.

What about the IC50 [21] of the same compound?
Its IC50 is greater than 10000 nM.

And the IC50 [22]?
Its IC50 is 31 nM.

And the IC50 [23]?
The IC50 was 228 nM.

And the IC50 [24]?
Its IC50 is greater than 10000 nM.

What about the IC50 [25] of the same compound?
The IC50 was greater than 10000 nM.

And the IC50 [26]?
Its IC50 is greater than 10000 nM.

And the IC50 [27]?
Its IC50 is greater than 10000 nM.

What about the IC50 [28] of the same compound?
Its IC50 is greater than 10000 nM.

What about the IC50 [29] of the same compound?
Its IC50 is 486 nM.

And the IC50 [30]?
Its IC50 is 1200 nM.

What about the IC50 [31] of the same compound?
Its IC50 is greater than 10000 nM.

And the IC50 [32]?
Its IC50 is 28 nM.

What about the IC50 [33] of the same compound?
The IC50 was greater than 10000 nM.

What about the IC50 [34] of the same compound?
The IC50 was 263 nM.

And the IC50 [35]?
The IC50 was greater than 10000 nM.
